Residue numbers refer to the chain shown, from its start.
Experiments:
Test in all cases: Thymol modulation of GABA concentration-response curves, two electrode voltage clamp in Xenopus oocytes
Type in all cases: cell-based
[1] = molecular target: T1, A21′Q mutant Drosophila RDL receptor (Drosophila melanogaster, UniProt P25123, A320Q)
T1 construct: expressed in transfected cells; host or cells: Xenopus laevis oocytes injected with cRNA
T1 sequence (P25123 45-606 A320Q): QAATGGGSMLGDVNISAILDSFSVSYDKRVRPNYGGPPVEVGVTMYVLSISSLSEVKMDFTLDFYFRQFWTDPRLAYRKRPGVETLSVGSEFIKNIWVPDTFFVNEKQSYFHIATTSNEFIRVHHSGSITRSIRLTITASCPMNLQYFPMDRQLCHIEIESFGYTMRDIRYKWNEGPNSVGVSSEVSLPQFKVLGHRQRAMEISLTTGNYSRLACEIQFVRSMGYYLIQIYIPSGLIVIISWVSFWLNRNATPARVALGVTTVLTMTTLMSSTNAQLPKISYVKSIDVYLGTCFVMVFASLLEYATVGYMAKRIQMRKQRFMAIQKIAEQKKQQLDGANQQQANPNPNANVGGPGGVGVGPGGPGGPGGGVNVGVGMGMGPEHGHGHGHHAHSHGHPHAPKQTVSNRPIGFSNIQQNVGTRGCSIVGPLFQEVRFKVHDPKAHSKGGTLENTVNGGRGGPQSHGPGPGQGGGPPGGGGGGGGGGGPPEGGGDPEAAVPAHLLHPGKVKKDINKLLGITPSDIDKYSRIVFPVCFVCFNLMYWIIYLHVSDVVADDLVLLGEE
Method: (§1) X. laevis oocyte-positive females were purchased from NASCO (Fort Atkinson, Wisconsin, USA) and maintained according to standard methods. Harvested stage V-VI Xenopus oocytes were washed in four changes of ND96 (96 mM NaCl, 2 mM KCl, 1 mM MgCl2, 1 mM CaCl2, 5 mM HEPES, pH 7.5), de-folliculated in 1.5 mg ml^−1 collagenase Type 1A for approximately 2 h, washed again in four changes of ND96 and stored in ND96 containing 2.5 mM sodium pyruvate, 0.7 mM theophylline and […].
(§2) Site directed mutagenesis was performed with the QuikChange mutagenesis kit (Agilent, La Jolla, CA). cRNA was transcribed in vitro from linearised pGEMHE cDNA template using the mMessage mMachine T7 Transcription kit (Ambion, Austin, Texas, USA). Stage V and VI oocytes were injected with 5 ng cRNA, incubated at 18 °C, and currents recorded 18–24 h post-injection.
(§3) Currents were recorded at 5 kHz and filtered at a frequency of 1 kHz. Micro-electrodes were fabricated from borosilicate glass (GC120TF-10, Harvard Apparatus, Edenbridge, Kent, UK) using a one stage horizontal pull (P-87, Sutter Instrument Company, California, USA) and filled with 3 M KCl. […] Oocytes were perfused with ND96 at a constant rate of 12 ml min^−1. Drug application was via a simple gravity fed system calibrated to run at the same rate.
(§4) Analysis and curve fitting was performed using Prism v5 (GraphPad Software, San Diego, California, USA). Concentration-response data for each oocyte was normalised to the maximum current for that oocyte. The mean and S.E.M. for a series of oocytes were fitted to the four parameter logistic equation in Prism.

[2] = molecular target: T2, wild type Drosophila RDL receptor (Drosophila melanogaster, UniProt P25123); conditions: WT RDL
T2 construct: expressed in transfected cells; host or cells: Xenopus laevis oocytes injected with cRNA
T2 sequence (P25123 45-606): T1 sequence (P25123 45-606 A320Q) with Q276A
Method: as §1, §2, §3, §4

[3] = molecular target: T3, T6′M mutant Drosophila RDL receptor (Drosophila melanogaster, UniProt P25123, T305M)
T3 construct: expressed in transfected cells; host or cells: Xenopus laevis oocytes injected with cRNA
T3 sequence (P25123 45-606 T305M): T1 sequence (P25123 45-606 A320Q) with T261M, Q276A
Method: as §1, §2, §3, §4

[4] = GABA EC50 control vs +100 μM thymol
[5] = GABA concentration-response in presence of 100 μM thymol

Structure (SMILES): Cc1ccc(C(C)C)c(O)c1 [Thymol, thymol]
- Effect of thymol on GABA-induced responses ([1]; 100 μM thymol, 1 μM GABA): enhance
- Fold change in EC50 [1, 4]: 3.6
- % Imax [1, 5]: 89 ± 4%
- Effect of thymol on GABA-induced responses ([2]; 100 μM thymol, 1 μM GABA): enhance
- Fold change in EC50 [2, 4]: 4.8
- % Imax [2, 5]: 94 ± 3%
- Effect of thymol on GABA-induced responses ([3]; 100 μM thymol, at some GABA concentrations): inhibition
- Fold change in EC50 [3, 4]: 3.4
- % Imax [3, 5]: 35 ± 9%

From PMC4261083, “An atypical residue in the pore of Varroa destructor GABA-activated RDL receptors affects picrotoxin block and thymol modulation” (Insect Biochemistry and Molecular Biology, 2014)
